≈ marks a conversion by molar mass, not a printed value. Entries after “also recorded” stand apart in the source; their conditions may differ.
What was measured:
[1] = serum half-life after intravenous administration to rats; conditions: rat, in vivo, rats, intravenously
From the text: The A82846 antibiotics have excellent in vitro and in vivo activity against Gram-positive pathogenic bacteria. A particularly unexpected attribute of these antibiotics is their long serum half-life.

Staphylococcus aureus [2] = assay: MIC by standard agar-dilution assay (Table VIII); type: cell-based; conditions: Staphylococcus aureus, 20 strains tested, read-out: MIC
Protocol: (§1) The MIC's in Tables VII and VIII were determined by standard agar-dilution assays.

[3] = test system: Staphylococcus epidermidis; assay: MIC by standard agar-dilution assay (Table VIII); type: cell-based; conditions: Staphylococcus epidermidis, 20 strains tested, read-out: MIC
Protocol: as §1

Streptococcus mutans = assay: MIC by standard agar-dilution assay (Table VIII); type: cell-based; conditions: Streptococcus mutans, 2 strains tested, read-out: MIC
Protocol: as §1

Streptococcus pneumoniae [4] = assay: MIC by standard agar-dilution assay (Table VIII); type: cell-based; conditions: Streptococcus pneumoniae, 20 strains tested, read-out: MIC
Protocol: as §1

Streptococcus pyogenes [5] = assay: MIC by standard agar-dilution assay (Table VIII); type: cell-based; conditions: Streptococcus pyogenes, 12 strains tested, read-out: MIC
Protocol: as §1

Streptococcus salivaris = assay: MIC by standard agar-dilution assay (Table VIII); type: cell-based; conditions: Streptococcus, 1 strain tested, read-out: MIC
Protocol: as §1

Streptococcus sanguis = assay: MIC by standard agar-dilution assay (Table VIII); type: cell-based; conditions: Streptococcus, 4 strains tested, read-out: MIC
Protocol: as §1

[6] = test system: Streptococcus sp. group. D; assay: MIC by standard agar-dilution assay (Table VIII); type: cell-based; conditions: Streptococcus, 20 strains tested, read-out: MIC
Protocol: as §1

Clostridium difficile = assay: MIC against anaerobic bacteria, standard agar-dilution assay (Table IX); type: cell-based; conditions: Clostridioides difficile; 19 strains; Gram-positive anaerobe; 24-hour incubation; read-out: MIC
Clostridium perfringens = assay: microbe, parasite or virus in culture; type: cell-based; conditions: Clostridium perfringens, 24 h
Eubacterium aerofaciens = assay: MIC against anaerobic bacteria, standard agar-dilution assay (Table IX); type: cell-based; conditions: Collinsella aerofaciens; 1 strain; Gram-positive anaerobe; 24-hour incubation; read-out: MIC
[7] = test system: Peptococcus asaccharolyticus; assay: as above; type: cell-based; conditions: Peptoniphilus asaccharolyticus; 3 strains; Gram-positive anaerobe; 24-hour incubation; read-out: MIC
Peptococcus prevoti = assay: as above; type: cell-based; conditions: 4 strains; Gram-positive anaerobe; 24-hour incubation; read-out: MIC
Peptococcus variabilis = assay: as above; type: cell-based; conditions: 1 strain; Gram-positive anaerobe; 24-hour incubation; read-out: MIC
Peptococcus constellatus = assay: as above; type: cell-based; conditions: Streptococcus constellatus; 1 strain; Gram-positive anaerobe; 24-hour incubation; read-out: MIC
Peptococcus magnus = assay: as above; type: cell-based; conditions: Finegoldia magna; 3 strains; Gram-positive anaerobe; 24-hour incubation; read-out: MIC
[8] = test system: Peptostreptococcus anaerobius; assay: as above; type: cell-based; conditions: Peptostreptococcus anaerobius; 8 strains; Gram-positive anaerobe; 24-hour incubation; read-out: MIC
[9] = test system: Peptostreptococcus intermedius; assay: as above; type: cell-based; conditions: Peptostreptococcus; 3 strains; Gram-positive anaerobe; 24-hour incubation; read-out: MIC
Propionibacterium acnes = assay: as above; type: cell-based; conditions: Cutibacterium acnes; 19 strains; Gram-positive anaerobe; 24-hour incubation; read-out: MIC
Bacteroides fragilis = assay: as above; type: cell-based; conditions: Bacteroides fragilis; 3 strains; Gram-negative anaerobe; 24-hour incubation; read-out: MIC
[10] = test system: Bacteroides thetaiotaomicron; assay: as above; type: cell-based; conditions: Bacteroides thetaiotaomicron; 1 strain; Gram-negative anaerobe; 24-hour incubation; read-out: MIC
[11] = test system: Bacteroides melaninogenicus; assay: as above; type: cell-based; conditions: 2 strains; Gram-negative anaerobe; 24-hour incubation; read-out: MIC
Bacteroides vulgatis = assay: as above; type: cell-based; conditions: Bacteroides; 1 strain; Gram-negative anaerobe; 24-hour incubation; read-out: MIC
Bacteroides corrodens = assay: as above; type: cell-based; conditions: Eikenella corrodens; 1 strain; Gram-negative anaerobe; 24-hour incubation; read-out: MIC
Fusobacterium symbiosum = assay: as above; type: cell-based; conditions: Fusobacterium; 1 strain; Gram-negative anaerobe; 24-hour incubation; read-out: MIC
[12] = test system: Fusobacterium necrophorum; assay: as above; type: cell-based; conditions: Fusobacterium necrophorum; 1 strain; Gram-negative anaerobe; 24-hour incubation; read-out: MIC
Staphylococcus aureus [13] = assay: protection of mice experimentally infected with test organism (Table X); type: in vivo; conditions: sc, read-out: ED50 Value
Protocol: (§2) The A82846 antibiotics have also shown in vivo antimicrobial activity against experimentally-induced infections in laboratory animals. When two doses of test compound were administered to mice experimentally infected with the test organism, the activity observed was measured as an ED50 value [effective dose in mg/kg to protect 50% of the test animals: see Warren Wick, et al., J. Bacteriol. 81, 233-235 (1961)].
(§3) ^a mg/kg × 2; doses administered subcutaneously to mice 1 and 4

Streptococcus pneumoniae [14] = assay: as above; type: in vivo; conditions: sc, read-out: ED50 Value
Protocol: as §2, §3

Streptococcus pyogenes [15] = assay: as above; type: in vivo; conditions: sc, read-out: ED50 Value
Protocol: as §2, §3

[16] = test system: experimental descending pyelonephritis infection in rats; assay: Rat Descending Pyelonephritis Test (Table XI); type: in vivo
Protocol: In one important aspect of their antibacterial activity, the A82846 antibiotics are useful for treating pyelonephritis. […] This test was carried out using a procedure like that described in U.S. Pat. No. 4,208,403.
^a Doses twice per day subcutaneously for 6 days

[17] = test system: Streptococcus faecalis X-66; assay: Rat Endocarditis Test, catheter-induced (Table XII); type: in vivo, rats; conditions: 16 days, 20 mg/kg × 28, subcutaneous at 12-hour intervals for 14 days
Protocol: The A82846 antibiotics are also useful in the treatment of endocarditis. […] In this test, rats were prepared by inserting a plastic catheter into the right carotid artery, feeding it down into the […] of the heart and anchoring it securely. The animals were allowed to rest two days, and then the test organism, Streptococcus faecalis X-66, was administered intravenously. The organism titer was approximately 5×10^8 /mL; 0.5 mL was administered.
The compounds were administered subcutaneously 15 minutes prior to infection and at 12-hour intervals for 14 days, a total of 28 treatments. The animals were held 2 days after therapy; then, the hearts were removed, homogenized, diluted and plated on trypticase soy agar. Plates were incubated 48 hours before counting.
^a Catheterinduced endocarditis using Streptococcus faecalis X66
^b Subcutaneous doses at 12hour intervals for 14 days
^c % of animals sacrificed with 4 log drop

[18] = human medicine; cited from earlier work
Clostridium septicum = assay: MIC against anaerobic bacteria, standard agar-dilution assay (Table IX); conditions: Clostridium septicum, 24 h
[19] = test system: Cultures A82846 and A82846.1; assay: resistance to antibiotics, antibiotic sensitivity discs on seeded agar plates; conditions: disc 30 μg
[20] = 2 mg/kg × 12, subcutaneous twice per day for 6 days
[21] = 5 mg/kg × 12, subcutaneous twice per day for 6 days
[22] = 10 mg/kg × 12, subcutaneous twice per day for 6 days

CN[C@H](CC(C)C)C(=O)N[C@H]1C(=O)N[C@@H](CC(N)=O)C(=O)N[C@H]2C(=O)N[C@H]3C(=O)N[C@H](C(=O)N[C@H](C(=O)O)c4cc(O)cc(O)c4-c4cc3ccc4O)[C@H](O)c3ccc(c(Cl)c3)Oc3cc2cc(c3O[C@@H]2O[C@H](CO)[C@@H](O)[C@H](O)[C@H]2O[C@H]2C[C@](C)(N)[C@H](O)[C@H](C)O2)Oc2ccc(cc2Cl)[C@H]1O [Vancomycin, vancomycin, reference compound]
half-life [1]: 45 min
MIC (Staphylococcus aureus [2]): 0.5 to 2 µg/mL (≈ 0.345 to 1.38 µM)
MIC [3]: 1 to 2 µg/mL (≈ 0.69 to 1.38 µM)
MIC (Streptococcus mutans): 0.125 to 2 µg/mL (≈ 0.0863 to 1.38 µM)
MIC (Streptococcus pneumoniae [4]): 0.015 to 4 µg/mL (≈ 0.0104 to 2.76 µM)
MIC (Streptococcus pyogenes [5]): 0.5 µg/mL (≈ 0.345 µM)
MIC (Streptococcus salivaris): 0.5 µg/mL (≈ 0.345 µM)
MIC (Streptococcus sanguis): 0.5 to 1 µg/mL (≈ 0.345 to 0.69 µM)
MIC [6]: 1 to 2 µg/mL (≈ 0.69 to 1.38 µM)
MIC (Clostridium difficile): 0.5 to 4 µg/mL (≈ 0.345 to 2.76 µM)
MIC (Clostridium perfringens): 2 µg/mL (≈ 1.38 µM)
MIC (Eubacterium aerofaciens): 2 µg/mL (≈ 1.38 µM)
MIC [7]: 1 µg/mL (≈ 0.69 µM)
MIC (Peptococcus prevoti): 1 to 4 µg/mL (≈ 0.69 to 2.76 µM)
MIC (Peptococcus variabilis): 1 µg/mL (≈ 0.69 µM)
MIC (Peptococcus constellatus): 1 µg/mL (≈ 0.69 µM)
MIC (Peptococcus magnus): 0.25 to 1 µg/mL (≈ 0.173 to 0.69 µM)
MIC [8]: 0.25 to 2 µg/mL (≈ 0.173 to 1.38 µM)
MIC [9]: 0.5 to 1 µg/mL (≈ 0.345 to 0.69 µM)
MIC (Propionibacterium acnes): 2 to 16 µg/mL (≈ 1.38 to 11 µM)
MIC (Bacteroides fragilis): 32 to 64 µg/mL (≈ 22.1 to 44.2 µM)
MIC [10]: 64 µg/mL (≈ 44.2 µM)
MIC [11]: > 128 µg/mL
MIC (Bacteroides vulgatis): 64 µg/mL (≈ 44.2 µM)
MIC (Bacteroides corrodens): 64 µg/mL (≈ 44.2 µM)
MIC (Fusobacterium symbiosum): 4 µg/mL (≈ 2.76 µM)
MIC [12]: 1 µg/mL (≈ 0.69 µM)
ED50 (Staphylococcus aureus [13]): 1.3 mg/kg
ED50 (Streptococcus pneumoniae [14]): 1.52 mg/kg
ED50 (Streptococcus pyogenes [15]): 0.72 mg/kg
Percent of Rats Cured [16, 20]: 38%
Percent of Rats with a 4-Log Reduction in Titer [16, 20]: 75%
Percent of Rats Cured [16, 21]: 38%
Percent of Rats with a 4-Log Reduction in Titer [16, 21]: 88%
Percent of Rats Cured [16, 22]: 63%
Percent of Rats with a 4-Log Reduction in Titer [16, 22]: 100%
% Cured [17]: 100%
% With 4 Log Drop ([17]; % of animals sacrificed): 100%
side effects [18]: ototoxicity; also recorded: nephrotoxicity
MIC (Clostridium septicum): 2 µg/mL (≈ 1.38 µM)
antibiotic resistance [19]: resistant
